Blank lines part the entries; values can stand above or below the molecule they belong to.
Tests used:
[1] = Half life in rat liver microsomes by LC/MS analysis; format: ADME, Microsome
[2] = Half life in human liver microsomes by LC/MS analysis; format: ADME, Microsome
[3] = Half life in monkey at 7.6 mg/kg, po; format: ADME, organism-based, Macaca mulatta; design: dose 7.6 mg/kg, route oral; settings: rhesus monkey, in vivo
[4] = AUC in monkey at 7.6 mg/kg, po; format: ADME, organism-based, Macaca mulatta; design: dose 7.6 mg/kg, route oral; settings: rhesus monkey, plasma
[5] = Oral bioavailability in monkey at 7.6 mg/kg; format: ADME, organism-based, Macaca mulatta; settings: rhesus monkey, in vivo
[6] = Volume of distribution at steady state in monkey at 1.1 mg/kg, iv and 7.6 mg/kg, po; format: ADME, organism-based, Macaca mulatta; settings: rhesus monkey, in vivo, read-out: Vdss
[7] = Half life in monkey at 1.1 mg/kg, iv; format: ADME, organism-based, Macaca mulatta; design: dose 1.1 mg/kg, route intravenous; settings: rhesus monkey, in vivo
Macaca fascicularis [8] = test: Half life in monkey at 4.6 mg/kg, po; settings: cynomolgus monkey, in vivo
[9] = AUC in monkey at 4.6 mg/kg, po; settings: cynomolgus monkey, plasma
Macaca fascicularis [10] = test: Volume of distribution at steady state in monkey at 0.93 mg/kg, iv and 4.6 mg/kg, po; settings: cynomolgus monkey, in vivo, read-out: Vdss
Macaca fascicularis [11] = test: Oral bioavailability in monkey at 4.6 mg/kg, po; settings: cynomolgus monkey, in vivo
Macaca fascicularis [12] = test: in vivo; settings: cynomolgus monkey, iv, 0.93 mg/kg
[13] = Volume of distribution at steady state in dog at 0.85 mg/kg, iv and 2.7 mg/kg, po; format: ADME, organism-based, Canis lupus familiaris; settings: in vivo, read-out: Vdss
[14] = Half life in dog at 2.7 mg/kg, po; format: ADME, organism-based, Canis lupus familiaris; design: dose 2.7 mg/kg, route oral; settings: in vivo
[15] = AUC in dog at 2.7 mg/kg, po; format: ADME, organism-based, Canis lupus familiaris; design: dose 2.7 mg/kg, route oral; settings: plasma
[16] = Oral bioavailability in dog at 2.7 mg/kg; format: ADME, organism-based, Canis lupus familiaris; settings: in vivo
[17] = Half life in dog at 0.85 mg/kg, iv; format: ADME, organism-based, Canis lupus familiaris; design: dose 0.85 mg/kg, route intravenous; settings: in vivo
[18] = AUC in rat at 14 mg/kg, po; format: ADME, organism-based; design: dose 14 mg/kg, route oral; settings: plasma
[19] = Volume of distribution at steady state in rat at 0.71 mg/kg, iv and 14 mg/kg, po; format: ADME, organism-based; settings: in vivo, read-out: Vdss
[20] = Half life in rat at 14 mg/kg, po; format: ADME, organism-based; design: dose 14 mg/kg, route oral; settings: in vivo
[21] = Half life in rat at 0.71 mg/kg, iv; format: ADME, organism-based; design: dose 0.71 mg/kg, route intravenous; settings: in vivo
[22] = Oral bioavailability in rat at 14 mg/kg; format: ADME, organism-based; settings: in vivo
[23] = AUC in rat at 10 mg/kg, po; format: ADME, organism-based; design: dose 10 mg/kg, route oral; settings: plasma
[24] = Half life in dog at 3 mg/kg, po; format: ADME, organism-based, Canis lupus familiaris; design: dose 3 mg/kg, route oral; settings: in vivo
[25] = Volume of distribution at steady state in rat at 2 mg/kg, iv and 10 mg/kg, po; format: ADME, organism-based; settings: in vivo, read-out: Vdss
[26] = Half life in dog at 1 mg/kg, iv; format: ADME, organism-based, Canis lupus familiaris; design: dose 1 mg/kg, route intravenous; settings: in vivo
[27] = Volume of distribution at steady state in dog at 1 mg/kg, iv and 3 mg/kg, po; format: ADME, organism-based, Canis lupus familiaris; settings: in vivo, read-out: Vdss
[28] = Half life in rat at 10 mg/kg, po; format: ADME, organism-based; design: dose 10 mg/kg, route oral; settings: in vivo
[29] = Oral bioavailability in rat at 10 mg/kg; format: ADME, organism-based; settings: in vivo
[30] = AUC in dog at 3 mg/kg, po; format: ADME, organism-based, Canis lupus familiaris; design: dose 3 mg/kg, route oral; settings: plasma
[31] = Half life in rat at 2 mg/kg, iv; format: ADME, organism-based; design: dose 2 mg/kg, route intravenous; settings: in vivo
[32] = Oral bioavailability in dog at 3 mg/kg; format: ADME, organism-based, Canis lupus familiaris; settings: in vivo
[33] = Volume of distribution at steady state in dog at 0.8 mg/kg, iv and 2.5 mg/kg, po; format: ADME, organism-based, Canis lupus familiaris; settings: in vivo, read-out: Vdss
[34] = Volume of distribution at steady state in rat at 0.8 mg/kg, iv and 11 mg/kg, po; format: ADME, organism-based; settings: in vivo, read-out: Vdss
[35] = Half life in rat at 11 mg/kg, po; format: ADME, organism-based; design: dose 11 mg/kg, route oral; settings: in vivo
[36] = Oral bioavailability in rat at 11 mg/kg; format: ADME, organism-based; settings: in vivo
[37] = Oral bioavailability in dog at 2.5 mg/kg; format: ADME, organism-based, Canis lupus familiaris; settings: in vivo
[38] = Half life in rat at 0.8 mg/kg, iv; format: ADME, organism-based; design: dose 0.8 mg/kg, route intravenous; settings: in vivo
[39] = AUC in rat at 11 mg/kg, po; format: ADME, organism-based; design: dose 11 mg/kg, route oral; settings: plasma
[40] = Half life in dog at 2.5 mg/kg, po; format: ADME, organism-based, Canis lupus familiaris; design: dose 2.5 mg/kg, route oral; settings: in vivo
[41] = AUC in dog at 2.5 mg/kg, po; format: ADME, organism-based, Canis lupus familiaris; design: dose 2.5 mg/kg, route oral; settings: plasma
[42] = Half life in dog at 0.8 mg/kg, iv; format: ADME, organism-based, Canis lupus familiaris; design: dose 0.8 mg/kg, route intravenous; settings: in vivo

half-life [1]: 0.0667 h
half-life [2]: 0.933 h
SMILES: N#Cc1ccccc1Cn1c(N2CCC[C@@H](N)C2)ncc(-c2ccoc2)c1=O

half-life [1]: > 3.33 h
half-life [2]: > 3.33 h
SMILES: Cn1c(=O)cc(N2CCC[C@@H](N)C2)n(Cc2cc(F)ccc2C#N)c1=O [TRELAGLIPTIN]

half-life [1]: 0.567 h
half-life [2]: > 3.33 h
SMILES: N#Cc1ccccc1Cn1c(N2CCC[C@@H](N)C2)ncc(/C=C/c2ccccc2)c1=O

half-life [1]: 1.57 h
half-life [3]: 5.4 h
AUC [4]: 8200 ng·h/mL
bioavailability [5]: 112%
Vd [6]: 4.2 L/kg
half-life [2]: > 3.33 h
half-life [7]: 4.2 h
SMILES: N#Cc1ccccc1Cn1c(N2CCC[C@@H](N)C2)ncc(Br)c1=O

half-life (Macaca fascicularis [8]): 6.2 h
AUC [9]: 8000 ng·h/mL
Vd (Macaca fascicularis [10]): 3.3 L/kg
bioavailability (Macaca fascicularis [11]): 105%
clearance (Macaca fascicularis [12]): 10 mL/min/kg
SMILES: Cl.Cn1c(=O)cc(N2CCC[C@@H](N)C2)n(Cc2cc(F)ccc2C#N)c1=O

half-life [1]: 3.33 h
half-life [2]: 2.02 h
SMILES: Cn1c(=O)cc(N2CCC[C@@H](N)C2)n(Cc2ccccc2C#N)c1=O [ALOGLIPTIN]

Vd [13]: 3.5 L/kg
half-life [14]: 4.5 h
AUC [15]: 3200 ng·h/mL
bioavailability [16]: 80%
half-life [17]: 4.6 h
SMILES: Cl.N#Cc1ccccc1Cn1c(N2CCC[C@@H](N)C2)ncc(F)c1=O

AUC [18]: 3800 ng·h/mL
Vd [19]: 4.2 L/kg
half-life [20]: 1.5 h
half-life [21]: 1.5 h
bioavailability [22]: 73%
SMILES: N#Cc1ccccc1Cn1c(N2CCC[C@@H](N)C2)ncc(F)c1=O.O=C(O)C(F)(F)F

half-life [1]: > 3.33 h
half-life [2]: > 3.33 h
SMILES: N#Cc1ccc(F)cc1Cn1c(N2CCC[C@@H](N)C2)ncc(F)c1=O

half-life [1]: 0.583 h
half-life [2]: > 3.33 h
SMILES: Cn1c(=O)cc(N2CCC[C@@](C)(N)C2)n(Cc2cc(F)ccc2C#N)c1=O

half-life [1]: 0.983 h
half-life [2]: 2.68 h
SMILES: N#Cc1ccccc1Cn1c(N2CCC[C@@H](N)C2)ncc(I)c1=O

Further lines, the molecule ahead of its results:

SMILES: C#Cc1cnc(N2CCC[C@@H](N)C2)n(Cc2ccccc2C#N)c1=O
half-life [1]: > 3.33 h
half-life [2]: > 3.33 h

SMILES: CCn1c(=O)cc(N2CCC[C@@H](N)C2)n(Cc2ccccc2C#N)c1=O
half-life [1]: 0.533 h
half-life [2]: > 3.33 h

SMILES: N#Cc1ccccc1Cn1c(N2CCC[C@@H](N)C2)cc(=O)[nH]c1=O
half-life [1]: > 3.33 h
half-life [2]: 2.15 h

SMILES: N#Cc1ccccc1Cn1c(N2CCC[C@@H](N)C2)ncc(/C=C/c2ccc(F)cc2)c1=O
half-life [1]: > 3.33 h
half-life [2]: 3.1 h

SMILES: C=Cc1cnc(N2CCC[C@@H](N)C2)n(Cc2ccccc2C#N)c1=O
half-life [1]: 0.1 h
half-life [2]: 2.73 h

SMILES: N#Cc1ccccc1Cn1c(N2CCC[C@@H](N)C2)ncc(-c2cc[nH]c2)c1=O
half-life [1]: 1.18 h
half-life [2]: 1.02 h

SMILES: Cl.N#Cc1ccccc1Cn1c(N2CCC[C@@H](N)C2)ncc(Br)c1=O
AUC [23]: 2400 ng·h/mL
half-life [24]: 6.1 h
Vd [25]: 3.2 L/kg
half-life [26]: 5.3 h
Vd [27]: 1.7 L/kg
half-life [28]: 1.7 h
bioavailability [29]: 74%
AUC [30]: 14700 ng·h/mL
half-life [31]: 1.1 h
bioavailability [32]: 105%

SMILES: N#Cc1ccccc1Cn1c(N2CCC[C@@H](N)C2)nccc1=O
half-life [1]: 2.18 h
half-life [2]: > 3.33 h

SMILES: COc1cnc(N2CCC[C@@H](N)C2)n(Cc2ccccc2C#N)c1=O
half-life [1]: 0.333 h
half-life [2]: > 3.33 h

SMILES: Cc1nc(N2CCC[C@@H](N)C2)n(Cc2ccccc2C#N)c(=O)c1C
half-life [1]: 0.167 h
half-life [2]: > 3.33 h

SMILES: Cn1c(=O)c(Cl)c(N2CCC[C@@H](N)C2)n(Cc2ccccc2C#N)c1=O
half-life [1]: 0.933 h
half-life [2]: 2.73 h

SMILES: Cl.N#Cc1ccccc1Cn1c(N2CCC[C@@H](N)C2)ncc(Cl)c1=O
Vd [33]: 1.9 L/kg
Vd [34]: 3 L/kg
half-life [35]: 1.3 h
bioavailability [36]: 65%
bioavailability [37]: 90%
half-life [38]: 1.3 h
AUC [39]: 2800 ng·h/mL
half-life [40]: 4.8 h
AUC [41]: 8400 ng·h/mL
half-life [42]: 5.2 h

Source: ChEMBL document CHEMBL1649419, “Design and synthesis of pyrimidinone and pyrimidinedione inhibitors of dipeptidyl peptidase IV” (J Med Chem, 2011)
